# ChEMBL document CHEMBL4229491, “Design, synthesis and evaluation of novel N-phenylbutanamide derivatives as KCNQ openers for the treatment of epilepsy” (Bioorg Med Chem Lett, 2018)
# Tests used:
# [1] = biological target: T1, Potassium voltage-gated channel subfamily KQT member 2 (Homo sapiens, UniProt O43526); assay: Channel opening activity at KCNQ2 (unknown origin) expressed in CHO cells after 10 mins by atomic absorption spectrophotometry-based Rb+ flow assay; type: cell-based
# [2] = biological target: T1, Potassium voltage-gated channel subfamily KQT member 2; assay: Channel opening activity at KCNQ2 (unknown origin) expressed in CHO cells at 10 uM incubated for 20 mins in dark measured every 2 secs for 10 secs by fluorescence-based thallium influx assay relative to control; type: cell-based
# [3] = biological target: T1, Potassium voltage-gated channel subfamily KQT member 2; assay: Channel opening activity at KCNQ2 (unknown origin) expressed in CHO cells assessed as conductivity (I/I0 ratio) at 10 uM by electrophysiological patch-clamp test; type: cell-based
# [4] = biological target: T1, Potassium voltage-gated channel subfamily KQT member 2; assay: Channel opening activity at KCNQ2 (unknown origin) expressed in CHO cells assessed as change in half activation potential at 10 uM by electrophysiological patch-clamp test; type: cell-based
# Mus musculus [5] = assay: Anticonvulsant activity in ip dosed maximal electroshock induced Kunming mouse assessed as suppression of hind legs rigidity measured after 30 mins; type: functional, organism-based
# Mus musculus [6] = assay: Anticonvulsant activity in maximal electroshock induced Kunming mouse assessed as epilepsy incidence at 5 mg/kg, ip measured after 30 mins; type: functional
# Mus musculus [7] = assay: Anticonvulsant activity in maximal electroshock induced Kunming mouse assessed as epilepsy incidence at 3 mg/kg, ip measured after 30 mins; type: functional
# Mus musculus [8] = assay: Anticonvulsant activity in maximal electroshock induced Kunming mouse assessed as epilepsy incidence at 1 mg/kg, ip measured after 30 mins; type: functional
# Mus musculus [9] = assay: Anticonvulsant activity in maximal electroshock induced Kunming mouse assessed as epilepsy incidence at 0.3 mg/kg, ip measured after 30 mins; type: functional
# Rattus norvegicus [10] = assay: Neurotoxicity in Sprague-Dawley rat at 5 mg/kg, ip measured after 30 mins by rotating-rod test; type: toxicity, organism-based; conditions: in vivo, 0.5 h
# Rattus norvegicus [11] = assay: Neurotoxicity in Sprague-Dawley rat at 3 mg/kg, ip measured after 30 mins by rotating-rod test; type: toxicity, organism-based; conditions: in vivo, 0.5 h
# Rattus norvegicus [12] = assay: Neurotoxicity in Sprague-Dawley rat at 1 mg/kg, ip measured after 30 mins by rotating-rod test; type: toxicity, organism-based; conditions: in vivo, 0.5 h
# Rattus norvegicus [13] = assay: Neurotoxicity in Sprague-Dawley rat at 0.3 mg/kg, ip measured after 30 mins by rotating-rod test; type: toxicity, organism-based; conditions: in vivo, 0.5 h
# [14] = Drug uptake in Kunming mouse brain at 1.5 mg/kg, iv measured after 2 hrs by LC/MS/MS analysis; type: ADME, organism-based; conditions: read-out: Drug uptake
# [15] = Drug uptake in Kunming mouse plasma at 1.5 mg/kg, iv measured after 2 hrs by LC/MS/MS analysis; type: ADME, organism-based
# [16] = Ratio of drug uptake in Kunming mouse brain to plasma at 1.5 mg/kg, iv measured after 2 hrs by LC/MS/MS analysis; type: ADME, organism-based; conditions: read-out: BPR
# [17] = Drug uptake in Kunming mouse brain at 1.5 mg/kg, iv measured after 30 mins by LC/MS/MS analysis; type: ADME, organism-based; conditions: read-out: Drug uptake
# [18] = Drug uptake in Kunming mouse plasma at 1.5 mg/kg, iv measured after 30 mins by LC/MS/MS analysis; type: ADME, organism-based
# [19] = Ratio of drug uptake in Kunming mouse brain to plasma at 1.5 mg/kg, iv measured after 30 mins by LC/MS/MS analysis; type: ADME, organism-based; conditions: read-out: BPR
# [20] = Drug uptake in Kunming mouse brain at 1.5 mg/kg, iv measured after 5 mins by LC/MS/MS analysis; type: ADME, organism-based; conditions: read-out: Drug uptake
# [21] = Drug uptake in Kunming mouse plasma at 1.5 mg/kg, iv measured after 5 mins by LC/MS/MS analysis; type: ADME, organism-based
# [22] = Ratio of drug uptake in Kunming mouse brain to plasma at 1.5 mg/kg, iv measured after 5 mins by LC/MS/MS analysis; type: ADME, organism-based; conditions: read-out: BPR
# [23] = Drug uptake in Kunming mouse brain at 15 mg/kg, ig measured after 2 hrs by LC/MS/MS analysis; type: ADME, organism-based; conditions: po, read-out: Drug uptake
# [24] = Drug uptake in Kunming mouse plasma at 15 mg/kg, ig measured after 2 hrs by LC/MS/MS analysis; type: ADME, organism-based; conditions: po
# [25] = Ratio of drug uptake in Kunming mouse brain to plasma at 15 mg/kg, ig measured after 2 hrs by LC/MS/MS analysis; type: ADME, organism-based; conditions: po, read-out: BPR
# [26] = Drug uptake in Kunming mouse brain at 15 mg/kg, ig measured after 30 mins by LC/MS/MS analysis; type: ADME, organism-based; conditions: po, read-out: Drug uptake
# [27] = Drug uptake in Kunming mouse plasma at 15 mg/kg, ig measured after 30 mins by LC/MS/MS analysis; type: ADME, organism-based; conditions: po
# [28] = Ratio of drug uptake in Kunming mouse brain to plasma at 15 mg/kg, ig measured after 30 mins by LC/MS/MS analysis; type: ADME, organism-based; conditions: po, read-out: BPR
# [29] = Drug uptake in Kunming mouse brain at 15 mg/kg, ig measured after 5 mins by LC/MS/MS analysis; type: ADME, organism-based; conditions: po, read-out: Drug uptake
# [30] = Drug uptake in Kunming mouse plasma at 15 mg/kg, ig measured after 5 mins by LC/MS/MS analysis; type: ADME, organism-based; conditions: po
# [31] = Ratio of drug uptake in Kunming mouse brain to plasma at 15 mg/kg, ig measured after 5 mins by LC/MS/MS analysis; type: ADME, organism-based; conditions: po, read-out: BPR
# [32] = Half life in Sprague-Dawley rat at 1 mg/kg, iv by LC/MS/MS analysis; type: ADME, organism-based; conditions: in vivo
# [33] = Tmax in Sprague-Dawley rat at 1 mg/kg, iv by LC/MS/MS analysis; type: ADME, organism-based; conditions: in vivo
# [34] = Cmax in Sprague-Dawley rat at 1 mg/kg, iv by LC/MS/MS analysis; type: ADME, organism-based; parameters: dose 1 mg/kg, route intravenous; conditions: in vivo
# [35] = AUClast in Sprague-Dawley rat at 1 mg/kg, iv by LC/MS/MS analysis; type: ADME, organism-based; parameters: dose 1 mg/kg, route intravenous, time 0 - last; conditions: in vivo
# [36] = Apparent volume of distribution in Sprague-Dawley rat at 1 mg/kg, iv by LC/MS/MS analysis; type: ADME, organism-based; conditions: in vivo, read-out: Vz
# [37] = Clearance in Sprague-Dawley rat at 1 mg/kg, iv by LC/MS/MS analysis; type: ADME, organism-based; conditions: in vivo
# [38] = MRTlast in Sprague-Dawley rat at 1 mg/kg, iv by LC/MS/MS analysis; type: ADME, organism-based; conditions: in vivo
# [39] = biological target: T1, Potassium voltage-gated channel subfamily KQT member 2; assay: Potency index, ratio of retigabine EC50 to compound EC50 for channel opening activity at KCNQ2 (unknown origin) expressed in CHO cells by atomic absorption spectrophotometry-based Rb+ flow assay; type: cell-based
# Mus musculus [40] = assay: Anticonvulsant activity in maximal electroshock induced Kunming mouse assessed as epilepsy incidence at 25 mg/kg, ip measured after 30 mins; type: functional
# Rattus norvegicus [41] = assay: Neurotoxicity in Sprague-Dawley rat at 25 mg/kg, ip measured after 30 mins by rotating-rod test; type: toxicity, organism-based; conditions: in vivo, 0.5 h
# T1 sequence (O43526 whole entry): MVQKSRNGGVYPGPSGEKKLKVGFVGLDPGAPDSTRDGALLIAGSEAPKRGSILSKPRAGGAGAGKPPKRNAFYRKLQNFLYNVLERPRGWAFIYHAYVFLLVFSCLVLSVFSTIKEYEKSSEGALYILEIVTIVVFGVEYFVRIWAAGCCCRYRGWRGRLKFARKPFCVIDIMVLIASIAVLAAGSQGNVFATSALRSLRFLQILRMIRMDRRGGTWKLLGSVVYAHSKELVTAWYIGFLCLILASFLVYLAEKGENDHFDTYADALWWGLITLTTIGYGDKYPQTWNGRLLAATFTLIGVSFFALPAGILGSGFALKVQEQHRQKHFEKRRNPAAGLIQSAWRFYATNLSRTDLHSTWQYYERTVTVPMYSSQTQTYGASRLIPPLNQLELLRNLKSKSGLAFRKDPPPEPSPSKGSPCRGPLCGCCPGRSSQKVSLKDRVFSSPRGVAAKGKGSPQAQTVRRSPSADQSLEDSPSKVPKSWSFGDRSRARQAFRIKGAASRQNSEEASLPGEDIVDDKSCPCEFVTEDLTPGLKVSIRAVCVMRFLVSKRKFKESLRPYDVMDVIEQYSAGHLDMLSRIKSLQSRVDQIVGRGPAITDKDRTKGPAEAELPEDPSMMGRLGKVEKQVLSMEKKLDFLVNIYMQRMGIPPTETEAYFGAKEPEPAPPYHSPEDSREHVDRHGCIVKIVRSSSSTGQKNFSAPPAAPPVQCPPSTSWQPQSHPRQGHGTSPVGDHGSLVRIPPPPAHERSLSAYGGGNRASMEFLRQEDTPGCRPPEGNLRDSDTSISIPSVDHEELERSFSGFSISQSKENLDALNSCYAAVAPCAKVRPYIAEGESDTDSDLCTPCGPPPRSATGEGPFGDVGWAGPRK
structure (smiles),measurement,setting,value
Cc1cc(N2CCc3cc(F)sc3C2)cc(C)c1NC(=O)CC(C)(C)C,EC50,[1],2930 nM
Cc1cc(N2CCCCc3cc(F)ccc32)cc(C)c1NC(=O)CC(C)(C)C,EC50,[1],250 nM
Cc1cc(N2CCCCc3cc(Br)ccc32)cc(C)c1NC(=O)CC(C)(C)C,EC50,[1],1080 nM
Cc1cc(N2CCc3sccc3C2)cc(C)c1NC(=O)CC(C)(C)C,EC50,[1],20 nM
same,Activity,[2],84.2%
same,Ratio,[3],1.63
same,V1/2,[4],66.2 mV
same,EC50,Mus musculus [5],1.83 mg/kg
same,Activity,Mus musculus [6],20%
same,Activity,Mus musculus [7],20%
same,Activity,Mus musculus [8],90%
same,Activity,Mus musculus [9],70%
same,Activity,Rattus norvegicus [10],0%
same,Activity,Rattus norvegicus [11],0%
same,Activity,Rattus norvegicus [12],0%
same,Activity,Rattus norvegicus [13],0%
same,concentration at 2 h,[14],1.27 ng/g
same,concentration at 2 h,[15],7.85 ng/mL
same,Kp at 2 h,[16],0.16
same,concentration at 0.5 h,[17],19 ng/g
same,concentration at 0.5 h,[18],137 ng/mL
same,Kp at 0.5 h,[19],0.14
same,concentration at 5 min,[20],140 ng/g
same,concentration at 5 min,[21],771 ng/mL
same,Kp at 5 min,[22],0.18
same,concentration at 2 h,[23],4.96 ng/g
same,concentration at 2 h,[24],52.9 ng/mL
same,Kp at 2 h,[25],0.09
same,concentration at 0.5 h,[26],30 ng/g
same,concentration at 0.5 h,[27],243 ng/mL
same,Kp at 0.5 h,[28],0.12
same,concentration at 5 min,[29],25 ng/g
same,concentration at 5 min,[30],201 ng/mL
same,Kp at 5 min,[31],0.12
same,half-life,[32],329 min
same,Tmax,[33],1.8 min
same,Cmax,[34],1060 ng/mL
same,AUC(0-t),[35],687 ng·h/mL
same,Vd,[36],11.2 L/kg
same,clearance,[37],23.6 mL/min/kg
same,MRT last,[38],2.17 h
same,Ratio EC50,[39],17
Cc1csc2c1CN(c1cc(C)c(NC(=O)CC(C)(C)C)c(C)c1)CC2,EC50,[1],300 nM
Cc1cc(N2CCc3ccsc3C2)cc(C)c1NC(=O)CC(C)(C)C,EC50,[1],20 nM
same,Activity,[2],64.8%
same,Ratio,[3],0.67
same,V1/2,[4],53.3 mV
CCOC(=O)Nc1ccc(NCc2ccc(F)cc2)cc1N [EZOGABINE],Ratio,[3],2.12
same,Activity,Mus musculus [40],15%
same,V1/2,[4],40 mV
same,Activity,Rattus norvegicus [41],0%
Cc1cc(N2CCCCc3cc(Cl)ccc32)cc(C)c1NC(=O)CC(C)(C)C,EC50,[1],140 nM
Cc1ccc2c(c1)CCCCN2c1cc(C)c(NC(=O)CC(C)(C)C)c(C)c1,EC50,[1],40 nM
Cc1cc2c(s1)CN(c1cc(C)c(NC(=O)CC(C)(C)C)c(C)c1)CC2,EC50,[1],30 nM
Cc1cc(N2CCn3cccc3C2)cc(C)c1NC(=O)CC(C)(C)C,EC50,[1],34 nM
same,Activity,[2],4.87%
same,Ratio,[3],1.65
same,V1/2,[4],46.1 mV
Cc1cc(N2CCc3sc(C#N)cc3C2)cc(C)c1NC(=O)CC(C)(C)C,EC50,[1],290 nM
Cc1cc(N2CCc3sc(C(F)(F)F)cc3C2)cc(C)c1NC(=O)CC(C)(C)C,EC50,[1],120 nM
